Results on three molecules are retold here after US12291536B2, “Crystal form of Wee1 inhibitor compound and use thereof” (Wuxi Biocity Biopharmaceutics Co., Ltd., priority 2019, dated 2025).

Each structure is given as a SMILES string.

Series [1] has as its system mouse colon cancer CT26 cell allograft tumor. Description: In vivo anti-tumor efficacy, CT26 mouse colon cancer cell transplanted tumor model. Further details: species or system BALB/c nude mice. The conditions noted are these: gavage 30 mg/kg twice a day, 18 days. As for the experimental part:
Experimental procedure: The selected experimental animals were BALB/c nude mice, 7 weeks, weighing 16-20 g, female.
Cells: Mouse colon cancer CT26 cells (Cell Bank of Type Culture Collection Committee of Chinese Academy of Sciences) were cultured in monolayer in vitro, and culture condition was RPMI-1640 medium containing 10% fetal bovine serum, in 37° C., 5% CO2 incubator. Trypsin-EDTA was used for routine digestion and passage. When the cells were in the exponential growth phase and the saturation was 80%-90%, the cells were collected, counted, and inoculated. 0.1 mL of DPBS (containing 3×10^5 CT26 cells) was subcutaneously inoculated on the right back of each mouse. When the average tumor volume reached 50-70 mm^3, randomized administration was carried out according to the tumor volume. Gavage dosage: 30 mg/kg, twice a day.
(§1) The experimental index was to investigate whether the tumor growth was inhibited, alleviated or cured. The diameters of the tumors were measured with a vernier caliper twice a week. The anti-tumor efficacy of the compound was evaluated by TGI (%) or the relative tumor growth rate T/C (%). TGI (%) reflects the tumor growth inhibition rate. […]

A short description of series [2]: Pharmacokinetic evaluation after single intravenous and single oral administration. Particulars: female, Balb/c Nude; for AUC(0-t): read-out: Area under the drug-time curve AUC0-last; for half-life: read-out: Half-life T1/2 (converted). It is filed as in vivo, female Balb/c Nude mice. As to the method:
Twelve mice (provided by Lingchang) were randomly divided into two groups, 6 females in each group, and samples were collected by cross-blood sampling.
In the intravenous group, plasma samples were collected at 9 time points: 5 min, 15 min, 30 min, 1 h, 2 h, 4 h, 6 h, 8 h, and 24 h after the administration. In the oral group, plasma samples were collected at 8 time points: 15 min, 30 min, 1 h, 2 h, 4 h, 6 h, 8 h and 24 h after the administration.

The test system of series [3] is human colon cancer LoVo cell subcutaneous xenograft tumor. Briefly: In vivo pharmacodynamic study, human colon cancer LoVo cell subcutaneous xenograft tumor model. Details: species or system BALB/c nude mice. The conditions noted are these: gavage 40 mg/kg twice a day, 16 days. As to the method:
Experimental method: The selected experimental animals (provided by Shanghai SIPPR-BK Experimental Animal Co., Ltd.) were BALB/c nude mice, 6-8 weeks, weighing 18-22 g.
Human colon cancer LoVo cells were cultured in monolayer in vitro, and culture conditions were Ham's F-12 medium with 10% fetal bovine serum, 100 U/mL penicillin, 100 μg/mL streptomycin and 2 mM glutamine, 37° C., 5% CO2. Trypsin-EDTA was used for routine digestion and passage, twice a week. When the cell saturation is 80%-90%, the cells were collected, counted, and inoculated. 0.1 mL (10×10^6 cells) of LoVo cells were subcutaneously inoculated on the right back of each nude mouse, and group administration was initiated when the average tumor volume reached 213 mm^3. Dosage for gavage administration was 40 mg/kg, twice a day. The experimental index was to investigate whether the tumor growth was inhibited, alleviated or cured. The diameters of the tumors were measured with a vernier caliper twice a week. The calculation formula for the tumor volume was V=0.5a×b^2, where a and b represent the long diameter and short diameter of the tumor, respectively.
The anti-tumor efficacy of the compound was evaluated by TGI (%) or the relative tumor growth rate T/C (%). TGI (%) reflects the tumor growth inhibition rate. […]

For series [4], the system named is P-gp (human MDR1). Description: In vitro permeability test in MDR1-MDCK II cells. The format is in vitro ADME, canine. The conditions noted are these: dog. The text has this:
(§2) MDR1-MDCK II cell authorized by the Piet Borst Laboratory of the Netherlands Cancer Institute was used in the study, the cell is a Madin-Darby canine kidney cell transfected with the human multi-drug resistance gene (MDR1), which can stably express efflux transporter P glycoprotein (P-gp) and therefore is suitable for screening P-gp substrate or inhibitor, and for predicting the permeability of compounds with high efflux barriers such as duodenum, blood-brain barrier, […], and kidney unit. MDR1-MDCK II cells of from passage 5-35 were used for permeability study.
(§3) MDR1-MDCK II cells were cultured with α-MEM medium (α-Minimum Essential Media) under culture condition of 37±1° C., 5% CO2 and saturated relative humidity. Then, the cells were seeded in a BD Transwell-96 well plate at a seeding density of 2.3×10^5 cells/cm^2, and then the cells were cultured in a carbon dioxide incubator for 4-7 days for transport experiment. The preparation method of its α-MEM medium was as follows:
(§4) The liquid nutrient base was prepared with powder (α-MEM powder from Gibco, Cat #:11900) dissolved in pure water, and was added with L- (L-glutamine) and NaHCO3. Then 10% FBS (fetal bovine serum), 1% PS (double antibody) and 1% NEAA were added upon use to make a complete medium. […]
(§5) After all samples were vortexed and centrifuged at 3220 g for 10 min, an appropriate volume of supernatant was transferred to the sample analysis plate. After the plate was sealed, the sample should be stored at 2-8° C. if it was not analyzed immediately, using the LC-MS/MS method for analysis.
(§6) After the transport experiment was over, the integrity of the MDR1-MDCK II cells was tested by the Lucifer Yellow Rejection Assay. After 30 min of incubation with the Lucifer Yellow solution, the Lucifer Yellow sample was collected, and the 2e plate reader set at 425/528 nm (Excitation/Emission) was used to detect the relative fluorescence intensity (RFU) of fluorescent yellow in the sample.

Series [5] has as its system P-gp (MDR1). Description: In vitro permeability test in MDR1-MDCK II cells. It is filed as in vitro ADME, canine. The conditions noted are these: dog.
Description: as §2, §3, §4, §5, §6

Series [6] relates to human pancreatic cancer BxPC-3 cell xenograft tumor. Description: In vivo pharmacodynamic study, human pancreatic cancer BxPC-3 subcutaneously transplanted tumor model. Details: species or system BALB/c nude mice. The conditions noted are these: BxPC-3 xenograft, gavage 25 mg/Kg once a day, 27 days. As for the experimental part:
Experimental procedure: The selected experimental animals were BALB/c nude mice, 6-8 weeks, weighing 18-22 g.
The 10th generation of BxPC-3 cells were cultured in monolayer in vitro, and the culture conditions were RPMI 1640 medium (Manufacturer: Gibco, Catalog: 22400-089) with 10% fetal bovine serum, 100 U/mL penicillin and 100 μg/mL Streptomycin, 37° C., 5% CO2, 4 passages. The passage method was twice a week with trypsin-EDTA for routine digestion and passage. When the cell saturation reached 80%-90%, the cells were digested with trypsin-EDTA, counted, and resuspended in PBS at a density of 5×10^7 cells/mL. Each animal was inoculated with 0.1 mL (5×10^6 cells) of BxPC-3 cells on the right back. When the average tumor volume reached 153 mm^3, they were randomly grouped according to the tumor volume and administration was started. Gavage dosage: 25 mg/Kg, once a day.
as §1
On the technique in general: Xenograft models place foreign cells or tissue in a host animal.

Series [7] addresses T1, Wee1 (Homo sapiens, UniProt P30291).
T1 construct: purchased Eurofins
Description: In vitro enzymatic inhibitory activity (Eurofins, [γ-33P]-ATP filter assay). It is filed as biochemical. Particulars: 10 μM ATP, 40 min, room temperature.
Description: The experimental test was carried out in Eurofins, and the experimental results were provided by the company.
Into the test system were added 20 mM Tris-HCl, pH 8.5, 0.2 mM EDTA, 500 μM polypeptide substrate ([sequence]), 10 mM magnesium acetate and 10 μM [γ-^33P]-ATP (intensity of about 500 cpm/pmol). After addition of Mg^2+ and ATP mixture, the reaction was initiated and incubated at room temperature for 40 min. 3% phosphate buffer was added to stop the reaction.
10 μL of reaction solution was taken and filtered on a continuous filter P30, and washed three times with 75 mM phosphate buffer, once with methanol, each washing for 5 min. After drying, the values were read by scintillation counting method.

Series [8] is described as follows: Solid stability test of Crystal Form F under high temperature, high humidity, illumination and accelerated conditions. The format is physicochemical. As for the experimental part: According to influencing factors and accelerated test conditions, about 5 mg of Crystal Form F of the Compound of Formula (I) was weighed precisely and placed in a dry and clean glass bottle, in duplicate, and spread into a thin layer, as the formal test sample, placed under the influencing factors test conditions (60° C., 92.5% RH (relative humidity)) and accelerated conditions (40° C./75% RH and 60° C./75% RH), with the samples fully exposed. The test system was covered with an aluminum foil paper with small holes. In addition, a small amount of samples were taken and placed in a 40 mL glass sample bottle under the same conditions to determine the crystal state. Sampling and analysis were performed on day 5 days, 10 days, and one month. The samples placed under Illumination (visible light 1200000 Lux, UV 200 W) conditions were fully exposed at room temperature.

The mark [9] stands for this setting: po, Administration by gavage, 10 mg/kg, mouse plasma.
Where [10] appears, read: Intravenous administration, 1 mg/kg, mouse plasma.
The mark [11] stands for this setting: Illumination (visible light 1200000 Lux, UV 200 W), room temperature.

T1 sequence (P30291 whole entry): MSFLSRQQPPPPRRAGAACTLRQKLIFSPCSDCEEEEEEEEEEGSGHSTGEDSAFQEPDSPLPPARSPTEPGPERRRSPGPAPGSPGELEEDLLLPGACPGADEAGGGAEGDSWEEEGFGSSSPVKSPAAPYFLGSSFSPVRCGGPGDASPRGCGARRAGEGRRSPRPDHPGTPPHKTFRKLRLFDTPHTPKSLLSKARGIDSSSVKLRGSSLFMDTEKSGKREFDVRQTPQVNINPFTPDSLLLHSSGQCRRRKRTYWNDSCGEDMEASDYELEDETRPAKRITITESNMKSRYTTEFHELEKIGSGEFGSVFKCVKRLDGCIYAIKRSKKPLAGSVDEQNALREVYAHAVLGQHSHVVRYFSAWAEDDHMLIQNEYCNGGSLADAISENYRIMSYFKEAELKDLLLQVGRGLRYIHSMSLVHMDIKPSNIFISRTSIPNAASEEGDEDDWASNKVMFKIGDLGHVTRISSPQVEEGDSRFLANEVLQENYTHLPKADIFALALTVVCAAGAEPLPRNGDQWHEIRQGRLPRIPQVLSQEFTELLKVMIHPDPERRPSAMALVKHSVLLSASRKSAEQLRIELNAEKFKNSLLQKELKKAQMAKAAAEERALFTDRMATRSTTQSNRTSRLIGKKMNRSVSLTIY

The bioavailability is the share of a dose that reaches the circulation, judged against a reference dose that is usually intravenous. A word on the efflux ratio: it is a quotient of directional permeabilities that is used to spot active efflux. A word on the IC50: it is the concentration that inhibits the measured activity by half. Lower therefore signals inhibition by little substance. For the molecule `CN1CCN(c2ccc(Nc3ncc4c(=O)n5n(c4n3)-c3cccc(n3)[C@](C)(O)CC/C=C\C5)cc2)CC1` (single isomer, unassigned) [Compound of Formula (I)], the “TGI (%)” value was found to be 93.38% in series [1], 84.74% in series [3] and 73.3% in series [6]. The bioavailability in series [2] (mouse, plasma, po, Administration by gavage, 10 mg/kg, read-out: Bioavailability F (%)) is 62.4%. Also, in series [2] (setting [9]), the AUC(0-t) turned out to be 6.04 µM·h. Besides, the clearance in series [2] (Intravenous administration, 1 mg/kg, mouse plasma, read-out: Clearance rate) was found to be 33.5 mL/min/kg. For the same molecule, in series [2] (setting [10]), the half-life was 101 min. Also, the efflux ratio at 150 min, 2 μM in series [4] was 3.82. In addition, in series [5] (read-out: Penetration rate A to B), the Papp A→B at 150 min, 2 μM worked out at 4.55 ×10⁻⁶ cm/s. Further, the Papp B→A at 150 min, 2 μM in series [5] (read-out: Penetration rate B to A) amounted to 17.4 ×10⁻⁶ cm/s. Moreover, in series [7], the half-inhibitory concentration (IC50) worked out at 29 nM.
Consider `C=CCn1c(=O)c2cnc(Nc3ccc(N4CCN(C)CC4)cc3)nc2n1-c1cccc(C(C)(C)O)n1` [AZD1775, reference compound], for which the results for the “TGI (%)” value in series [1], in series [3] and in series [6] were 66.43%, 26.73% and 24.3%, respectively. Moreover, the AUC(0-t) in series [2] (setting [9]) turned out to be 1.2 µM·h. Also, in series [2] (setting [10]), the half-life is 15.1 min.
`CN1CCN(c2ccc(Nc3ncc4c(=O)n5n(c4n3)-c3cccc(n3)[C@](C)(O)CC/C=C\C5)cc2)CC1` [Crystal Form F]: the Content % came out at 99.38% in series [8] (0 day); 97.94% in series [8] (40° C.-75% humidity, 1 month); 98.01% in series [8] (40° C.-75% humidity, 10 day); 99.39% in series [8] (60° C., 5 days); 99.98% in series [8] (60° C., 10 days); 99.46% in series [8] (60° C.-75% humidity, 1 month). Further, the Content % in series [8] (60° C.-75% humidity, 10 day) worked out at 100.43%; in series [8] (92.5% humidity, 5 days), 98.72%; in series [8] (92.5% humidity, 10 days), 98.38%; in series [8] (setting [11]) it was 98.58%; in series [8] (Protection from light) it was 97.77%. Moreover, the Total impurity % in series [8] (0 day) is reported as 0.63%; in series [8] (40° C.-75% humidity, 1 month), 0.62%; in series [8] (40° C.-75% humidity, 10 day), 0.63%; in series [8] (60° C., 5 days), 0.74%; in series [8] (60° C., 10 days), 0.84%; in series [8] (60° C.-75% humidity, 1 month) it was 0.75%. Also, the Total impurity % in series [8] (60° C.-75% humidity, 10 day) is 0.69%; in series [8] (92.5% humidity, 5 days), 0.61%; in series [8] (92.5% humidity, 10 days), 0.64%; in series [8] (setting [11]), 0.67%; in series [8] (Protection from light), 0.61%. The “Crystal form change (physical stability)” value in series [8] (one-month solid influencing factor and accelerated test) is “did not change”.
